Assay results as given in ChEMBL document CHEMBL3507680, “University of Dundee, Gates Library screen for HepG2 cell viability”.

Experiment: Human HepG2 cell viability assay in 384 well format
Format: toxicity, cell-based
Set-up: dose 125 nL, time 70.5 hour; concentration not given beside the values
Conditions: HepG2 cells, read-out: Inhibition

SMILES	cytotoxicity at 70.5 h [%]
Cc1cc(NC(=O)NCC(CC(C)C)N2CCOCC2)n(C)n1 (stereo not drawn)	2.74
CCOc1ccc(C#N)cc1NCC(=O)NC1(C#N)CCCC1	-6.01
CCNC(=O)NC(=O)CNc1cc(C#N)ccc1OCC	-3.61
CN1CCOC(CNC(=O)Cc2coc(-c3ccccc3)n2)C1 (stereo not drawn)	-13.1
OC(CN1CCC(c2ccn[nH]2)CC1)c1ccc(F)cc1F (stereo not drawn)	-5.74
CN(Cc1ccncc1)C(=O)NCc1nnc2n1CCCCC2	22.9
CN(Cc1ccc(O)cc1)C(=O)NCc1nnc2n1CCCCC2	-2.24
CCN(CC1CCCO1)C(=O)Nc1ccc(OC)c(C)c1 (stereo not drawn)	-8.02
O=C(c1ccc(-n2cnnn2)cc1)N1CCCC(n2ccnc2)C1 (stereo not drawn)	-6.98
CC(C)c1n[nH]c(C(=O)Nc2ccccn2)c1Br	12.4
CN(Cc1ccc(N(C)C)cc1)C(=O)NCc1nnc2n1CCC2	-5.5
Cc1cccc(NC2CCN(C(=O)Nc3ccc(F)c(F)c3)CC2)n1	-4.64
Cc1cnn(CC2CCCN2C(=O)c2cccc(S(C)(=O)=O)c2)c1 (stereo not drawn)	-2.98
Cc1cnn(CC2CCCN2C(=O)c2cccc(-n3ccc(C)n3)c2)c1 (stereo not drawn)	-7.87
Cc1cccc(NC2CCN(C(=O)Nc3ccccn3)CC2)n1	2.1
CCN1CCOC(CNCc2cccc(OCc3ccccn3)c2)C1 (stereo not drawn)	-6.84
O=C(CCc1cccc(F)c1F)N1CCCC(n2cncn2)C1 (stereo not drawn)	-6.22
CN(Cc1ccc(F)cc1)C(=O)NCc1nnc2n1CCC2	-10.4
Cc1nccn1CC1CCCN1S(=O)(=O)Cc1cccc(F)c1 (stereo not drawn)	18.7
Fc1cccc(-c2nc(CN3CCCC3Cn3cncn3)co2)c1 (stereo not drawn)	8.65
Cc1nccn1CC1CCCN1S(=O)(=O)Cc1cccc(C#N)c1 (stereo not drawn)	29.1
Fc1ccc(-c2nc(CN3CCCC3Cn3cncn3)co2)cc1 (stereo not drawn)	17.6
CC(C)(C)c1nc(CN2CCC(c3ccnn3CCO)CC2)no1	-0.084
c1ccc(-c2cnc(CN3CCCC3Cn3cccn3)o2)cc1 (stereo not drawn)	1.69

SMILES	cytotoxicity at 70.5 h [%]
COc1ccc(-c2cnc(CN3CCCC3Cn3cccn3)o2)cc1 (stereo not drawn)	-7.48
Cc1nc(C2CCCN(C(=O)c3c[nH]c(C(C)C)n3)C2)no1 (stereo not drawn)	-2.72
c1ccc(-c2nc(CN3CCCCC3Cn3cncn3)co2)cc1 (stereo not drawn)	-0.916
NC(=O)C1CCN(C(=O)CCCc2nnc(-c3ccccc3)o2)CC1	-10.4
Cc1cc(CN2CCN(C(=O)NCc3ccc(C)s3)CC2)on1	-2.93
CCc1noc(CN2CCC(c3ccnn3CCO)CC2)n1	-5.37
CC(C)c1noc(CN2CCC(c3ccnn3CCO)CC2)n1	-3.73
O=C(CCCc1nnc(-c2ccccc2)o1)N1CCN(C2CC2)CC1	0.0439
COc1ccccc1CNC(=O)N1CCN(Cc2cc(C)on2)CC1	-2.55
NC(=O)C1CCN(C(=O)CCCc2nnc(-c3ccccc3)o2)C1 (stereo not drawn)	-0.453
c1ccc(-c2nc(CN3CCCC3Cn3cncn3)co2)cc1 (stereo not drawn)	-7.46
Clc1ccc(-c2nc(CN3CCCC3Cn3cncn3)co2)cc1 (stereo not drawn)	-1.1
Cc1ccc(-c2nc(CN3CCCC3Cn3cncn3)co2)cc1 (stereo not drawn)	1.81
CC(O)CN1CCN(C(=O)c2cccn2Cc2ccccc2)CC1 (stereo not drawn)	-1.63
O=C(CCCc1nc(-c2ccccc2)no1)N1CCN(CCO)CC1	17.6
CCC(O)CN1CCN(C(=O)c2cccc(CC#N)c2)CC1 (stereo not drawn)	1.07
CN(C)c1ncccc1CNC(=O)N1CCCC1CN1CCCC1 (stereo not drawn)	24.9
COc1ccc(-c2nc(CN3CCc4cnc(C)nc4C3)no2)cc1	-6.23
COCCc1noc(CN(C)C2CCCN(c3cccnn3)C2)n1 (stereo not drawn)	22.9
CC(C)c1ncc2c(n1)CN(Cc1noc(-c3ccccc3)n1)CC2	0.861
CC(NC(=O)c1cccs1)C(=O)NCc1ccccn1 (stereo not drawn)	-2.68
CCn1cnnc1CNC(=O)NC(c1cccs1)C1CCCC1 (stereo not drawn)	19.6
COc1ncccc1CNC(=O)N1CCCC1c1ccsc1 (stereo not drawn)	-0.312
Cc1ncsc1C(=O)NC1CCN(CCC#N)CC1	16.5

SMILES	cytotoxicity at 70.5 h [%]
O=C(NCc1cccnc1N1CCCCC1)c1cccs1	-3.28
Cc1ncsc1C(=O)NC1CCN(CCCC#N)CC1	-1.22
Cc1cc(NC(=O)CN2CCc3cncnc3C2)on1	3.49
Cc1nc(C)n(CC2CCCN2CC(=O)NC2CCOCC2)n1 (stereo not drawn)	2.61
CCc1nnc(CN2CCN(CC(O)c3ccccc3)CC2)o1 (stereo not drawn)	-1.5
Cc1nccn1C1CCCN(C(=O)c2ccc3c(c2)COC3)C1 (stereo not drawn)	-3.92
O=C(Nc1ccc(CCN2CCC(O)CC2)cc1)C1CCOCC1	9.76
Cc1noc(C)c1C(=O)NCC(O)c1ccc(F)cc1F (stereo not drawn)	27.1
Cc1cc(CN2CCCC2c2noc(C3CC3)n2)c2ccccc2n1 (stereo not drawn)	51.7
Cc1nnc(NCc2ccccc2Cl)c(C#N)c1C	-9.79
Cc1cc(C)n(CC2CCCN2C(=O)c2cnn(C)c2C2CC2)n1 (stereo not drawn)	-11.8
CC(C)C(C(=O)N1CCCN(Cc2nccn2C)CC1)N1CCCC1 (stereo not drawn)	30.4
CN(Cc1cccc(F)c1)C1CCN(CCc2ccccn2)CC1	15.1
Cc1ccc(-c2cc(CNC(=O)N3CCC(CO)CC3)on2)cc1	5.23
Cc1nc(CNC(=O)NCC(O)c2ccc(F)c(F)c2)cs1 (stereo not drawn)	1.43
CCN1CCC(CNC(=O)NCc2cc(-c3ccc(C)cc3)no2)C1 (stereo not drawn)	-1.11
COc1ccc(C(O)CNC(=O)NCc2csc(C)n2)cc1 (stereo not drawn)	27.2
CCC1CN(C(=O)Nc2cnc3c(cnn3C(C)C)c2)CCO1 (stereo not drawn)	1.85
COc1ccc(OCCCNC(=O)NCc2csc(C)n2)cc1	-7.03
Cc1ccc(N2CCCN(C(=O)C(C(C)C)n3cncn3)CC2)nn1 (stereo not drawn)	1.73
CS(=O)(=O)CCC(=O)Nc1cnn(-c2ccccc2Cl)c1	2.48
Cc1[nH]ncc1C(=O)N1CCCC(c2cc(C(F)(F)F)[nH]n2)C1 (stereo not drawn)	5.58
CCS(=O)(=O)c1ccccc1N1CCC(NC(=O)NC2CCCC2)CC1	-14.2
CN1CCN(C(=O)c2ccc(=O)n(C)c2)c2ccccc21	-1.74

SMILES	cytotoxicity at 70.5 h [%]
O=C(NCCC(=O)N1CCCC1)c1nn(-c2ccccc2F)cc1O	35.9
CC(NC(=O)NCCCN1CCCCCC1)c1nncn1C (stereo not drawn)	0.545
CC(NC(=O)NCCN1CCCCCC1=O)c1nncn1C (stereo not drawn)	7.16
COCCCN(C)C1CCCN(Cc2noc(C)n2)C1 (stereo not drawn)	6.68
N#Cc1ccc(F)c(CN2CCCC2Cn2cnc3ccccc32)c1 (stereo not drawn)	7.39
N#Cc1ccc(F)c(CN2CCCC2Cn2cccn2)c1 (stereo not drawn)	-5.17
COCCN1CCC(N(Cc2noc(C3CC3)n2)C(C)=O)C1 (stereo not drawn)	10.7
CCc1nc(C2CCCN2C(=O)CCNS(C)(=O)=O)no1 (stereo not drawn)	0.333
Cc1nn(C)c(C)c1C1CCCN1Cc1nc(C2CC2)no1 (stereo not drawn)	36.6
O=C(c1cccc(Cn2ccnc2)c1)N1CCCC(n2ccnc2)C1 (stereo not drawn)	-16.1
NC(=O)COc1cccc(C(=O)N2CCCC(n3cccn3)C2)c1 (stereo not drawn)	28.9
CC(C)c1ncc2c(n1)CN(Cc1nc(-c3cccs3)no1)CC2	-11.9
CC(NC(=O)CCc1cccs1)c1nnc2n1CCC2 (stereo not drawn)	-36.3
CS(=O)(=O)N1CCC(C(=O)NCCNc2ncccn2)CC1	-19.2
COc1ncccc1NC(=O)NC1CCOc2ccccc21 (stereo not drawn)	-14.2
O=C(c1cc(C2CC2)[nH]n1)N1CCN(Cc2ccsc2)CC1	22
COc1cccc(C(=O)NS(=O)(=O)c2cccc(C#N)c2)c1OC	-13.8
Cc1ccc(C(=O)N2CCN(Cc3nc(C(C)C)no3)CC2)c(=O)[nH]1	1.28
CC(NC(=O)Cc1cccs1)c1nnc2n1CCCCC2 (stereo not drawn)	-23.9
O=C1NCCN1C1CCCN(Cc2coc(-c3ccc(F)cc3)n2)C1 (stereo not drawn)	31
Cc1cnn(CC2CN(Cc3nccn3C)CCO2)c1 (stereo not drawn)	-10.6
Cc1nnc2n1CCN(Cc1csc(-c3ccc(F)cc3)n1)C2	-12.1
c1ccc2oc(N3CCCCC3Cn3cncn3)nc2c1 (stereo not drawn)	25.6
Cc1ccc(NC2CCN(C(=O)CCc3ccco3)CC2)nn1	-9.84

SMILES	cytotoxicity at 70.5 h [%]
CC(C)c1ncc2c(n1)CN(Cc1nc(-c3ccoc3)no1)CC2	-16.7
O=C(CN1CC(n2cccn2)C1)NCCCc1ccccc1	-8.01
CC(=O)Nc1nc(CN2CCn3c(nnc3C3CC3)C2)cs1	-7.7
CC1CN(CC(=O)Nc2cccnc2)CCN1c1nccs1 (stereo not drawn)	-12.4
Cc1cc(NC(=O)CN2CCN(c3nccs3)C(C)C2)n(C)n1 (stereo not drawn)	-7.64
Cc1nc(C)n(CC2CCCN(CCOc3cccc(C#N)c3)C2)n1 (stereo not drawn)	40.4
COc1ccccc1N1CCC(CNCc2cccc(C#N)c2)C1 (stereo not drawn)	35.6
CC(C)c1nc(C2CCCN(C(=O)CCn3ccnc3)C2)no1 (stereo not drawn)	13.6
Cc1noc(CN(Cc2ccc3c(c2)OCO3)Cc2ccc(C)o2)n1	-15.7
COc1ccccc1C1(C(=O)NCCN2CCOCC2)CCOCC1	-17.1
Cc1cnn(C2CCCN(C(=O)CCc3nccs3)C2)c1 (stereo not drawn)	17.1
CSC(C)C(=O)N1CCCN(Cc2cnn(C(C)C)c2)CC1 (stereo not drawn)	-12
Cc1cnn(C2CCCN(C(=O)CCCNc3ncccn3)C2)c1 (stereo not drawn)	-14.5
Cc1ccc(N2CCCN(C(=O)CC3CCCO3)CC2)nn1 (stereo not drawn)	-18.7
COc1ccccc1N1CCC(CNCc2cccc(OC)c2OC)C1 (stereo not drawn)	13.4
CC(C)c1nc(C2CCCN(C(=O)CCCn3cncn3)C2)no1 (stereo not drawn)	-16
Cc1nnc(CN2CCC(N(C)Cc3nnc(C4CC4)n3C)C2)o1 (stereo not drawn)	-21.8
Cc1cnn(CC2CCCCN2Cc2nnc(-c3ccco3)o2)c1 (stereo not drawn)	-4.33
Cc1nn(CC(C)C)c(N(C)C)c1CNCc1cccnc1N(C)C	-13.5
CC(C(=O)Nc1ccc(N2CCCC2)nc1)n1cncn1 (stereo not drawn)	-12.1
Cn1cnc(S(=O)(=O)NCCCN2CCOCC2)c1Cl	-14.4
Cn1cnc(S(=O)(=O)NCCCN2CCCCCC2)c1Cl	-6.45
